# Measured values reported in paper PMC7463460, “Structure and Antiparasitic Activity Relationship of Alkylphosphocholine Analogues against Leishmania donovani” (Microorganisms, 2020).
# Values joined by “and” are separate entries in the source; they are usually repeats but may differ in a detail not shown here. Equal values may be shown once.
# Columns and labels:
# Format in all cases: cell-based, Leishmania donovani
# [1] = system: L. donovani LV82 promastigotes; assay: Luciferase-expressing promastigote assay, strain LV82; conditions: for Promast: Amast Ratio / IC90: LV82; for IC50 / IC90: Leishmania donovani; for IC50: 72 h
# Experimental: (§1) The anti-leishmanial activity of APC against L. donovani luciferase-expressing promastigotes was determined by adding of the appropriate 100 µL parasite line (10^6 cells/mL) to the wells of a 96-well plate and adding 100 µL medium alone (controls) or 100 µL of APC compound (0.01 µg/mL–6.25 µg/mL, n = 3/treatment). The plate was incubated for 72 h at 25 °C. In combination assays, the additional compound/compounds, at a final concentration of 0.195 or 0.39 µg/mL, was added to the initial APC being tested.
# (§2) Luciferin solution (1 µg/mL in 20 µL medium without FCS) was added to the appropriate wells of the 96-well plate at the end of the experiment and the amount of light emitted/well was measured using a luminometer (Biotek Synergy HT, relative light units) using a wavelength/bandwidth of 440/40 nm, or IVIS® imaging (Spectrum Living Image system®, total flux, photons/sec).
# (§3) The effect of drug treatment on parasite survival was determined by calculating the mean suppression in the light emitted from the drug-treated experimental sample compared to the mean control value and used to calculate the IC50 using Grafit® software (version 5.0, Erithacus Software, East Grinstead, West Sussex, UK). The effect of drug alone on the viability of uninfected macrophages was determined using the same experimental protocol above, but cell viability was determined using an alamar blue colorimetric assay. At the end of the incubation period, cells’ 10 µL resazurin solution (0.02% w/v) was added to control and drug treated cells and the absorbance of samples was read at 575 and 595 nm. The effect of drug treatment on cell survival, which correlates with the magnitude of dye reduction, was expressed as percentage viability (or alamar blue reduction) and determined using the formula provided in the manufacturer’s protocol % alamar blue reduction=(εoxλ)(Aλ1)−(εoxλ1)(Aλ2)/(εredλ1)(A^′λ2)−(εredλ2)(A^′λ1)x100
# [2] = system: L. donovani 282/4 (Sb-sensitive) promastigotes; assay: Promastigote luciferase assay, Sb-sensitive strain 282/4; conditions: strain 282/4, Sb-sensitive; for IC50: Leishmania donovani
# Description: (§4) L. donovani cloned strains with different Sb susceptibility backgrounds were derived from isolates obtained from VL patients at the B.P. Koirala Institute of Health Sciences, Dharan, Nepal: MHOM/NP/02/BPK282/0cl4 (Sb sensitive, Sb-S). MHOM/NP/02/BPK087/0cl11 (Sb intermediate, Sb-I) and MHOM/NP/02/BPK275/0cl18 (Sb resistance, Sb-R [13]). In addition, Milt-resistant parasites raised against these three Sb sensitivity backgrounds and the Sb-sensitive strain (MHOM/ET/67:LV82) was also used in studies. Luciferase expressing promastigotes for the LV82 and Nepalese strains were prepared using previously published methods and the integrative construct (a gift from Dr D.F. Smith), designated pGL1313, contained pSSU-int fragments to facilitate integration into the ribosomal RNA locus of Leishmania.
# as §1, §2, §3
# [3] = system: L. donovani 275/18 (Sb-resistant) intracellular amastigotes; assay: Intracellular amastigote assay, Sb-resistant strain 275/18; conditions: for IC50: Leishmania donovani, read-out: Mean IC50 Amastigotes; for Cross-Resistance Index (CRI50) Amast: strain 275/18, Sb-resistant vs Sb-S; for Selectivity Index (SI50): strain 275/18, Sb-resistant, macrophage CC50 / amastigote IC50
# Description: as §4
# (§5) In the macrophage studies, the method described in previous studies was used as follows. Briefly, bone-marrow-derived BALB/c macrophages (1–2 × 10^5) in 100 µL complete RPMI 1640 medium were added to the wells of a 96 well plate and left to adhere for 24 h at 37 °C, 5% CO₂/95% air. The medium was removed and 100 µL of the appropriate L. donovani luciferase-expressing promastigotes line (parasite: host cell ratio 1:10, 1:20 or 1:40) was added to each well, the ratio used reflected the infectivity of the strain and ensured that control data gave a bioluminescent signal within the same range. […] The variability in infectivity complicates strain to strain comparisons, but we decided to focus on achieving good infection levels in controls so that the effect of drug treatment could be determined. It is possible that intracellular macrophage parasites could have been at different developmental stages at 24 h post-infection. […] Therefore, we assumed that the effect of compounds on the amastigote stage rather than the promastigotes stage was determined in in vitro macrophage studies.
# (§6) The plate was incubated for a further 24 h, the medium removed, and each well washed with PBS to eliminate non-internalized parasites, which were monitored microscopically. When the wells were devoid of external parasites, 100 µL of the medium alone (control) or appropriate APC compound was then added (0.01–0.197 µg/mL, n = 3/treatment). […]. All plates were incubated for 72 h at 37 °C, 5% CO₂/95% air. Wells with macrophage and with no drug or promastigotes added were used in control experiments.
# as §2
# as §3, with “reduction=(εoxλ)(Aλ1)−(εoxλ1)(Aλ2)/(εredλ1)(A^′λ2)−(εredλ2)(A^′λ1)x100 […]” for “reduction=(εoxλ)(Aλ1)−(εoxλ1)(Aλ2)/(εredλ1)(A^′λ2)−(εredλ2)(A^′λ1)x100”
# [4] = system: L. donovani 282/4 Milt-Sb-sensitive promastigotes; assay: Promastigote luciferase assay, Milt-resistant 282/4; conditions: for IC50: Leishmania donovani, read-out: Mean IC50 Value Promastigotes; for Promast: Amast Ratio: strain 282/4, Milt-Sb-sensitive
# Description: as §4, §1, §2, §3
# [5] = system: L. donovani 275/18 Milt-Sb-resistant promastigotes; assay: Promastigote luciferase assay, Milt-resistant 275/18; conditions: for IC50: Leishmania donovani, read-out: Mean IC50 Value Promastigotes
# Description: as §4
# The anti-leishmanial activity of APC against L. donovani luciferase-expressing promastigotes was determined by adding of the appropriate 100 µL parasite line (10^6 cells/mL) to the wells of a 96-well plate and adding 100 µL medium alone (controls) or 100 µL of APC compound (0.01 µg/mL–6.25 µg/mL, n = 3/treatment). […].
# as §2, §3
# Cross resistance (CRI50) indexes were determined as Cross selectivity indices (CRI)=mean IC50 value for the relevant drug−resistant strain i.e., Sb−I or Sb−R / mean IC50 value drug−sensitive strain Sb−S
# [6] = system: L. donovani 275/18 Milt-Sb-resistant intracellular amastigotes; assay: Intracellular amastigote assay, Milt-resistant 275/18; conditions: for IC50: Leishmania donovani, read-out: Mean IC50 Value Amastigotes; for Selectivity Index (SI50): macrophage CC50 / amastigote IC50
# Description: as §4, §5, §6, §2
# as §3, with “reduction=(εoxλ)(Aλ1)−(εoxλ1)(Aλ2)/(εredλ1)(A^′λ2)−(εredλ2)(A^′λ1)x100 […]” for “reduction=(εoxλ)(Aλ1)−(εoxλ1)(Aλ2)/(εredλ1)(A^′λ2)−(εredλ2)(A^′λ1)x100”
# [7] = strain 275/18, Milt-Sb-resistant
SMILES,Promast: Amast Ratio [1],"Promastigotes mean IC50 ([1]; LV82, 3 days, 25 °C) [µg/mL]","IC50 ([1]; LV82, 3 days, 25 °C)",IC90 [1] [µg/mL],fold more active than Milt (APC16) ([1]; promastigotes) [fold],IC50 [2],Promast: Amast Ratio [2],IC50 [3],Cross-Resistance Index (CRI50) Amast [3],Selectivity Index (SI50) [3],IC50 [4],Promast: Amast Ratio [4],IC50 [5],"Promast: Amast Ratio [5, 7]",IC50 [6],"Selectivity Index (SI50) [6, 7]","Cross-Resistance Index (CRI50) Promast [5, 7]","Cross-Resistance Index (CRI50) Amast [6, 7]"
"CCCCCCCCCCCCOP(=O)([O-])OCC[N+](C)(C)C [APC12, dodecylphosphocholine]",16.46,0.16 ± 0.00,0.163 µg/mL and 460 nM,1.47,10,0.55 µg/mL and 1.56 µM,2.09,0.23 µg/mL and 650 nM,0.88,153.83,> 125 µg/mL and > 356 µM,>1562.5,> 125 µg/mL and > 356 µM,>28.09,4.45 µg/mL and 12.7 µM,7.95,,
"CCCCCCCCCCCCCCOP(=O)([O-])OCC[N+](C)(C)C [APC14, tetradecylphosphocholine]",7.97,,0.2 µg/mL and 530 nM,,,0.44 µg/mL and 1.16 µM,3.64,0.28 µg/mL and 740 nM,2.33,146.04,> 125 µg/mL and > 329 µM,>72.25,> 125 µg/mL and > 329 µM,,34.9 µg/mL and 91.8 µM,1.17,1.00,> 20.144
"CCCCCCCCCCCCCCCCOP(=O)([O-])OCC[N+](C)(C)C [APC16, hexadecylphosphocholine, reference compound]",7.00,,0.7 µg/mL and 1.72 µM,6.3 ± 0.1,,0.84 µg/mL and 2.06 µM,2.68,0.51 µg/mL and 1.25 µM,,,> 125 µg/mL and > 307 µM,>77.64,> 125 µg/mL and > 307 µM,2.04,> 61.4 µg/mL and > 151 µM,,,
